The record followed here is patent US20240307415A1, “STEROID COMPOUND, AND PHARMACEUTICAL COMPOSITION THEREOF AND USE THEREOF” (JIANGSU SIMCERE PHARMACEUTICAL CO., LTD., priority 2021, published 2024).

Molecules are shown by their SMILES.

Chain of Glucocorticoid Receptor GR (P04150 whole entry): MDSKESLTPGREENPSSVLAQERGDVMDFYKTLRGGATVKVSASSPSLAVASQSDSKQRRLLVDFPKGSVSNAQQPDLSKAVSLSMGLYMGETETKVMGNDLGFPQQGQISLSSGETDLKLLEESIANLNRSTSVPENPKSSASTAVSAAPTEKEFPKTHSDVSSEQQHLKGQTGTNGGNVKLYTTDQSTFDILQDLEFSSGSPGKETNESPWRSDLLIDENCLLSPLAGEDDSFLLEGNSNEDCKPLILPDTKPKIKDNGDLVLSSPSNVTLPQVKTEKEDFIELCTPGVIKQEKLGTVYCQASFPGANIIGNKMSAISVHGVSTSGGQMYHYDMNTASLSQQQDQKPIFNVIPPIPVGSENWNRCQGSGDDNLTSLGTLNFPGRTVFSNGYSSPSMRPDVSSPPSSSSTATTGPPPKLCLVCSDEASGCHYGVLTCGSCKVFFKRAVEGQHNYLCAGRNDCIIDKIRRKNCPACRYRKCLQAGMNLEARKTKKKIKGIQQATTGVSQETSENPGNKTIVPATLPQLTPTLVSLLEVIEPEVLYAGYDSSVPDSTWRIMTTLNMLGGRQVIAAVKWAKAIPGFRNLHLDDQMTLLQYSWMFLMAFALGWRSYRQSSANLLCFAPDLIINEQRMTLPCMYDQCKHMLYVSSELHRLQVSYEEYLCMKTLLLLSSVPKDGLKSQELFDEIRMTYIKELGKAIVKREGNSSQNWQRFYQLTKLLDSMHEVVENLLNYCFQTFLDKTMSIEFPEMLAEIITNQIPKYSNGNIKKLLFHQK

The first test deals with K562-GRE reporter gene. Nature of the test: K562-GRE reporter gene activity. The test is classed as cell-based. As to conditions: 24 h, read-out: K562-GRE Reporter EC50. The procedure: To generate the parental K562-GRE cell line, K562 cells were seeded at 5×10^5 cells/well onto a 6-well plate (brand: Costar, Cat. No: 3516) containing 2 mL of complete medium (RPM1640, 10% FBS, penicillin-streptomycin) and cultured at 37° C. with 5% CO2 for 24 h. The next day, 3 μg of pNL2.2[NLucP/MMTV/Hygro-NANO] (Promega) and 3 μL of PLUS reagent (brand: Invitrogen, Cat. No: 11514-015) were diluted in 150 μL of Opti-MEM (brand: Gibco, Cat. No: 11058021) and incubated at room temperature for 5 min. The pNL2.2[NLucP/MMTV/Hygro-NANO] vector contains MMTV LTR (mouse mammary tumor virus long terminal repeat), which drives transcription of the luciferase reporter gene NanoLuc in response to activation of several nuclear receptors (e.g. glucocorticoid receptor and androgen receptor). After incubation, the diluted DNA solution was mixed with Lipofectamine LTX solution (brand: Invitrogen, Cat. No: 15338-100) (6 μL of Lipofectamine LTX+144 μL of Opti-MEM) in a 1:1 ratio, pre-incubated, and incubated at room temperature for 15 min to form a DNA-Lipofectamine LTX complex. After incubation, 300 μL of the DNA-Lipofectamine complex was added directly to the cell wells. The K562 cells were transfected at 37° C. with 5% CO2 for 24 h. After transfection, the cells were washed with 3 mL of PBS and selectively grown for two weeks with complete growth medium containing 125 μg/mL hygromycin B (brand: Invitrogen, Cat. No: 10687010). “K562-GRE (pNL2.2[NLucP/MMTV/Hygro-NANO])” cells were generated.
After mixing, the cells were cultured in an incubator at 37° C. for 24 h. After 24 h of incubation, an equal volume of 100 μL of Nano-Glo luciferase assay system (brand: Promega, Cat. No: N1120) was added to the cells, the mixture was reacted in a shaker at […] for 10 min, and the chemiluminescence values were detected using the PHERAstar instrument. The antibody binding curves were plotted using the logarithmic value of the antibody concentration as the abscissa and the corresponding chemiluminescence reading as the ordinate, and the EC50 value was calculated by four-parameter fitting (GraphPad Prism9).
As for `C[C@]12C=CC(=O)C=C1CC[C@@H]1[C@@H]2[C@@H](O)C[C@@]2(C)[C@H]1C[C@H]1O[C@@H](c3ccc(Cc4ccc5c(c4)NCC5)cc3)O[C@]12C(=O)CO` [Compound 004, (6aR,6bS,7S,8aS,8bS,10R,11aR,12aS,12bS)-7-hydroxy-8b-(2-hydroxyacetyl)-10-(4-(indolin-6-ylmethyl)phenyl)-6a,8a-dimethyl-6a,6b,7,8,8a,8b,11a,12,12a,12b-decahydro-1H-naphtho[2′,1′:4,5]indeno[1,2-d][1,3]dioxolan-4(2H)-one], the EC50 came out at 7.5 nM.
Turning to `C[C@]12C=CC(=O)C=C1[C@@H](F)C[C@H]1[C@@H]3C[C@H]4O[C@@H](c5ccc(Cc6ccc7c(c6)OCCN7)cc5)O[C@@]4(C(=O)CO)[C@@]3(C)C[C@H](O)[C@@]12F` [Compound 006, (2S,6aS,6bR,7S,8aS,8bS,10R,11aR,12aS,12bS)-10-(4-((3,4-dihydro-2H-benzo[b][1,4]oxazin-7-yl)methyl)phenyl)-2,6b-difluoro-7-hydroxy-8b-(2-hydroxyacetyl)-6a,8a-dimethyl-6a,6b,7,8,8a,8b,11a,12,12a,12b-decahydro-1H-naphtho[2′,1′:4,5]indeno[1,2-d][1,3]dioxolan-4(2H)-one], the EC50 came out at 1.7 nM.
Take `C[C@]12C=CC(=O)C=C1CC[C@@H]1[C@@H]2[C@@H](O)C[C@@]2(C)[C@H]1C[C@H]1O[C@@H](c3ccc(Cc4ccc(N)c5ncoc45)cc3)O[C@]12C(=O)CO` [Compound 007, (6aR,6bS,7S,8aS,8bS,10R,11aR,12aS,12bS)-10-(4-((4-aminobenzo[d]oxazol-7-yl)methyl)phenyl)-7-hydroxy-8b-(2-hydroxyacetyl)-6a,8a-dimethyl-6a,6b,7,8,8a,8b,11a,12,12a,12b-decahydro-1H-naphtho[2′,1′:4,5]indeno[1,2d][1,3]dioxolan-4(2H)-one]: the EC50 came to 2.1 nM.
Still for that read-out and setting: in the case of `C[C@]12C=CC(=O)C=C1[C@@H](F)C[C@H]1[C@@H]3C[C@H]4O[C@@H](c5ccc(Cc6ccc(N)c7c6CCO7)cc5)O[C@@]4(C(=O)CO)[C@@]3(C)C[C@H](O)[C@@]12F` [Compound 010, (2S,6aS,6bR,7S,8aS,8bS,10R,11aR,12aS,12bS)-10-(4-((7-amino-2,3-dihydrobenzofuran-4-yl)methyl)phenyl)-2,6b-difluoro-7-hydroxy-8b-(2-hydroxyacetyl)-6a,8a-dimethyl-6a,6b,7,8,8a,8b,11a,12,12a,12b-decahydro-1H-naphtho[2′,1′:4,5]indeno[1,2-d][1,3]dioxolan-4(2H)-one] it was 1.07 nM.

Staying with this test, now noted: K562-GRE cells, 24 h incubation, NanoLuc luciferase; read-out: K562-GRE Reporter EC50.
On to `C[C@]12C=CC(=O)C=C1CC[C@@H]1[C@@H]2[C@@H](O)C[C@@]2(C)[C@H]1C[C@H]1O[C@@H](c3ccc(Cc4ccc5cc[nH]c5c4)cc3)O[C@]12C(=O)CO` [Compound 003, (6aR,6bS,7S,8aS,8bS,10R,11aR,12aS,12bS)-10-(4-((1H-indol-6-yl)methyl)phenyl)-7-hydroxy-8b-(2-hydroxyacetyl)-6a,8a-dimethyl-6a,6b,7,8,8a,8b,11a,12,12a,12b-decahydro-1H-naphtho[2′,1′:4,5]indeno[1,2-d][1,3]dioxolan-4(2H)-one], for which the half-maximal effective concentration (EC50) was found to be 3.8 nM.
In the case of `C[C@]12C=CC(=O)C=C1CC[C@@H]1[C@@H]2[C@@H](O)C[C@@]2(C)[C@H]1C[C@H]1O[C@@H](c3ccc(Cc4ccc(N)c5c4CCC5)cc3)O[C@]12C(=O)CO` [Compound 011, (6aR,6bS,7S,8aS,8bS,10R,11aR,12aS,12bS)-10-(4-((7-amino-2,3-dihydro-1H-inden-4-yl)methyl)phenyl)-7-hydroxy-8b-(2-hydroxyacetyl)-6a,8a-dimethyl-6a,6b,7,8,8a,8b,11a,12,12a,12b-decahydro-1H-naphtho[2′,1′:4,5]indeno[1,2-d][1,3]dioxolan-4(2H)-one], the EC50 is 4.25 nM.
As to `CC12C=CC(=O)C=C1CCC1C2C(O)CC2(C)C1CC1OC(c3ccc(Cc4cc(N)cc5c4CCO5)cc3)OC12C(=O)CO` [Compound 012, (6aR,6bS,7S,8aS,8bS,10R,11aR,12aS,12bS)-10-(4-((6-amino-2,3-dihydrobenzofuran-4-yl)methyl)phenyl)-7-hydroxy-8b-(2-hydroxyacetyl)-6a,8a-dimethyl-6a,6b,7,8,8a,8b,11a,12,12a,12b-decahydro-1H-naphtho[2′,1′:4,5]indeno[1,2-d][1,3]dioxolan-4(2H)-one], the EC50 came to 9.58 nM.
As for `C[C@]12C=CC(=O)C=C1CC[C@@H]1[C@@H]2[C@@H](O)C[C@@]2(C)[C@H]1C[C@H]1O[C@@H](c3ccc(Cc4ccc5nc[nH]c5c4)cc3)O[C@]12C(=O)CO` [Compound 002, (6aR,6bS,7S,8aS,8bS,10R,11aR,12aS,12bS)-10-(4-((1H-benzo[d]imidazol-6-yl)methyl)phenyl)-7-hydroxy-8b-(2-hydroxyacetyl)-6a,8a-dimethyl-6a,6b,7,8,8a,8b,11a,12,12a,12b-decahydro-1H-naphtho[2′,1′:4,5]indeno[1,2-d][1,3]dioxolan-4(2H)-one], the EC50 came to 9 nM.
As to `C[C@]12C=CC(=O)C=C1CC[C@@H]1[C@@H]2[C@@H](O)C[C@@]2(C)[C@H]1C[C@H]1O[C@@H](c3ccc(Cc4ccc5c(c4)OCCN5)cc3)O[C@]12C(=O)CO` [Compound 005, (6aR,6bS,7S,8aS,8bS,10R,11aR,12aS,12bS)-10-(4-((3,4-dihydro-2H-benzo[b][1,4]oxazin-7-yl)methyl)phenyl)-7-hydroxy-8b-(2-hydroxyacetyl)-6a,8a-dimethyl-1,2,6a,6b,7,8,8a,8b,11a,12,12a,12b-decahydro-1H-naphtho[2′,1′:4,5]indeno[1,2-d][1,3]dioxolan-4(2H)-one], the EC50 turned out to be 5.6 nM.
Regarding `C[C@]12C=CC(=O)C=C1CC[C@@H]1[C@@H]2[C@@H](O)C[C@@]2(C)[C@H]1C[C@H]1O[C@@H](c3ccc(Cc4ccc(N)c5c4OCO5)cc3)O[C@]12C(=O)CO` [Compound 008, (6aR,6bS,7S,8aS,8bS,10R,11 aR,12aS,12bS)-10-(4-((7-aminobenzo[d][1,3]dioxolan-4-yl)methyl)phenyl)-7-hydroxy-8b-(2-hydroxyacetyl)-6a,8a-dimethyl-6a,6b,7,8,8a,8b,11a,12,12a,12b-decahydro-1H-naphtho[2′,1′:4,5]indeno[1,2-d][1,3]dioxolan-4(2H)-one], the EC50 came out at 7.81 nM.

Another test addresses Glucocorticoid Receptor GR (Homo sapiens (Human), UniProt P04150). Nature of the test: Binding activity to glucocorticoid receptor GR (Polarscreen fluorescence polarization kit). Particulars: GR full length, 2 h. The procedure: The binding activity of the compound to GR was determined using the Polarscreen Glucocorticoid Receptor Assay Kit, Red (brand: Thermo, Cat. No: A15898). […] The highest concentration was 100 μM, 8 concentrations in total. […] With the log value of the final concentration of the compound as the X axis and the mP value as the Y axis, data was input into the processing software Graphpad Prism 9, and the EC50 value was calculated by four-parameter fitting
`C[C@]12C=CC(=O)C=C1CC[C@@H]1[C@@H]2[C@@H](O)C[C@@]2(C)[C@H]1C[C@H]1O[C@@H](c3ccc(Cc4ccc5c(c4)NCC5)cc3)O[C@]12C(=O)CO` [Compound 004, (6aR,6bS,7S,8aS,8bS,10R,11aR,12aS,12bS)-7-hydroxy-8b-(2-hydroxyacetyl)-10-(4-(indolin-6-ylmethyl)phenyl)-6a,8a-dimethyl-6a,6b,7,8,8a,8b,11a,12,12a,12b-decahydro-1H-naphtho[2′,1′:4,5]indeno[1,2-d][1,3]dioxolan-4(2H)-one] displayed an EC50 of 42.5 nM.
In turn, `C[C@]12C=CC(=O)C=C1CC[C@@H]1[C@@H]2[C@@H](O)C[C@@]2(C)[C@H]1C[C@H]1O[C@@H](c3ccc(Cc4ccc(N)c5ncoc45)cc3)O[C@]12C(=O)CO` [Compound 007, (6aR,6bS,7S,8aS,8bS,10R,11aR,12aS,12bS)-10-(4-((4-aminobenzo[d]oxazol-7-yl)methyl)phenyl)-7-hydroxy-8b-(2-hydroxyacetyl)-6a,8a-dimethyl-6a,6b,7,8,8a,8b,11a,12,12a,12b-decahydro-1H-naphtho[2′,1′:4,5]indeno[1,2d][1,3]dioxolan-4(2H)-one] displayed an EC50 of 17.1 nM.
